Results published in ChEMBL document CHEMBL1128246, “Synthesis and structure-activity relationships of oxamic acid and acetic acid derivatives related to L-thyronine” (J Med Chem, 1995).

These compounds were tested against T1, Thyroid hormone receptor beta (Rattus norvegicus, UniProt P18113) (assay: Ability to inhibit the bound [125I]L-T3 rat liver Nuclear L-triiodothyronine receptor is determined in vitro.). Conditions: not given.
T1 sequence (P18113 whole entry): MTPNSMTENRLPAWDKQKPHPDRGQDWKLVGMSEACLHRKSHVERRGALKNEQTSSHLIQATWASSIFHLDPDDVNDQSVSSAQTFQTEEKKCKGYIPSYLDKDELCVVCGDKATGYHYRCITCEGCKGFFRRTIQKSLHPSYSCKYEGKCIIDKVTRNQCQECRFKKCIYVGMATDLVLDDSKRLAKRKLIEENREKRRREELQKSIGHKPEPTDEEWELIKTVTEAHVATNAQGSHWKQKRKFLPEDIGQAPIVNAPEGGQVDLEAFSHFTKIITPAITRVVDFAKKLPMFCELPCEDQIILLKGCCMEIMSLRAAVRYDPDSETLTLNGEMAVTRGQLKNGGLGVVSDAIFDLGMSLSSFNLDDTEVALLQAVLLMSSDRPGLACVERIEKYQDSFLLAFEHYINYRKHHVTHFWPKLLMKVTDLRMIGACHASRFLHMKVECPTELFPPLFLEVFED

Q: How did the IC50 turn out when `CC(C)c1cc(Oc2c(I)cc(NCC(=O)O)cc2I)ccc1O` was run?
A: The IC50 was 0.31 nM.

Q: With `CC(C)c1cc(Oc2c(Cl)cc(NC(Cc3ccccc3)C(=O)O)cc2Cl)ccc1O` (stereo unspecified) as the compound, how does the IC50 read?
A: The IC50 was 58 nM.

Q: How did the IC50 turn out when `Cc1cc(NC(C)C(=O)O)cc(C)c1Oc1ccc(O)c(C(C)C)c1` (stereo unspecified) was run?
A: The IC50 was 550 nM.

Q: With `CC(C)c1cc(Oc2c(Br)cc(SCC(=O)O)cc2Br)ccc1O` as the compound, how does the IC50 read?
A: Its IC50 is 1.5 nM.

Q: `CC(C)c1cc(Oc2c(Cl)cc(NCC(=O)O)cc2Cl)ccc1O` was tested. Which IC50 did it give?
A: The IC50 was 1.1 nM.

Q: How did the IC50 turn out when `CCOC(=O)C(=O)Nc1cc(C)c(Oc2ccc(OC)c(C(O)c3ccc(F)cc3)c2)c(C)c1` (stereo unspecified) was run?
A: The IC50 was 34 nM.

Q: How did the IC50 turn out when `Cc1cc(CCC(=O)O)cc(C)c1Oc1ccc(O)c(C(C)C)c1` was run?
A: The IC50 was greater than 5000 nM.

Q: For `CC(C)c1cc(Oc2c(Br)cc(CCC(=O)O)cc2Br)ccc1O`, which IC50 is on record?
A: Its IC50 is 0.11 nM.

Q: `Cc1cc(SCC(=O)O)cc(C)c1Oc1ccc(O)c(C(C)C)c1` was tested. Which IC50 did it give?
A: Its IC50 is 3.5 nM.

Q: For `CC(Nc1cc(Cl)c(Oc2ccc(O)c(C(C)C)c2)c(Cl)c1)C(=O)O` (stereo unspecified), which IC50 is on record?
A: The IC50 was 48 nM.

Q: `CC(C)c1cc(Oc2c(Br)cc(OCC(=O)O)cc2Br)ccc1O` was tested. Which IC50 did it give?
A: Its IC50 is 0.1 nM.

Q: Which IC50 does the source give for `Cc1cc(NC(Cc2ccccc2)C(=O)O)cc(C)c1Oc1ccc(O)c(C(C)C)c1` (stereo unspecified) here?
A: Its IC50 is 400 nM.

Q: `Cc1cc(NCC(=O)O)cc(C)c1Oc1ccc(O)c(C(C)C)c1` was tested. Which IC50 did it give?
A: Its IC50 is 12 nM.

What follows are compounds tested on Rattus norvegicus (assay: Dose which was not showing any cardiac effect in normal cholesterol rats upon peroral administration). Conditions: not given.
Format: functional

Q: Which Dose does the source give for `CC(C)c1cc(Oc2c(Cl)cc(NC(=O)C(=O)O)cc2Cl)ccc1O` here?
A: Its Dose is 10 mg/kg.

Q: How did the Dose turn out when `Cc1cc(NC(=O)C(=O)O)cc(C)c1Oc1ccc(O)c(C(C)C)c1` was run?
A: Its Dose is 10 mg/kg.

Q: Which Dose does the source give for `CCOC(=O)C(=O)Nc1cc(C)c(Oc2ccc(O)c(C(O)c3ccc(F)cc3)c2)c(C)c1` (stereo in doubt; 23a) [AXITIROME] here?
A: Its Dose is greater than 25 mg/kg.

Q: Which Dose does the source give for `N[C@@H](Cc1cc(I)c(Oc2ccc(O)c(I)c2)c(I)c1)C(=O)O` [LIOTHYRONINE] here?
A: Its Dose is less than 0.025 mg/kg.

These compounds were tested on Rattus norvegicus (assay: Percent change in serum LDL level was determined in hypercholesterolemic rats at 25 ug/Kg upon peroral administration). Conditions: not given.
Format: functional

Q: With `Cc1cc(NC(=O)C(=O)O)cc(C)c1Oc1ccc(O)c(C(C)C)c1` as the compound, how does the Change read?
A: The Change was -67%.

Each compound was assayed on Rattus norvegicus (assay: Percent change in serum HDL level was determined in hypercholesterolemic rats at 10 ug/Kg upon peroral administration). Conditions: not given.
Format: functional

Q: Which Change does the source give for `CCOC(=O)C(=O)Nc1cc(C)c(Oc2ccc(O)c(C(O)c3ccc(F)cc3)c2)c(C)c1` (stereo in doubt; 23a) [AXITIROME] here?
A: Its Change is 0%.

These compounds were tested on Rattus norvegicus (assay: Percent change in serum HDL level was determined in hypercholesterolemic rats at 100 ug/Kg upon peroral administration). Conditions: not given.
Format: functional

Q: Which Change does the source give for `N[C@@H](Cc1cc(I)c(Oc2ccc(O)c(I)c2)c(I)c1)C(=O)O` [LIOTHYRONINE] here?
A: Its Change is -8%.

What follows are compounds tested on Rattus norvegicus (assay: Percent change in serum HDL level was determined in hypercholesterolemic rats at 25 ug/Kg upon peroral administration). Conditions: not given.
Format: functional

Q: With `Cc1cc(NC(=O)C(=O)O)cc(C)c1Oc1ccc(O)c(C(C)C)c1` as the compound, how does the Change read?
A: The Change was -5%.

The compounds below were run on Rattus norvegicus (assay: Percent change in serum LDL level was determined in hypercholesterolemic rats at 10 ug/Kg upon peroral administration). Conditions: not given.
Format: functional

Q: Which Change does the source give for `CCOC(=O)C(=O)Nc1cc(C)c(Oc2ccc(O)c(C(O)c3ccc(F)cc3)c2)c(C)c1` (stereo in doubt; 23a) [AXITIROME] here?
A: The Change was -73%.

Each compound was assayed on Rattus norvegicus (assay: Percent change in serum LDL level was determined in hypercholesterolemic rats at 100 ug/Kg upon peroral administration). Conditions: not given.
Format: functional

Q: Which Change does the source give for `N[C@@H](Cc1cc(I)c(Oc2ccc(O)c(I)c2)c(I)c1)C(=O)O` [LIOTHYRONINE] here?
A: Its Change is -65%.

The compounds below were run on Rattus norvegicus (assay: Effective dose was determined in hypercholesterolemic rats for lowering total serum cholesterol compared to control upon peroral administration). Conditions: po.
Format: functional

Q: For `CC(C)c1cc(Oc2c(Cl)cc(NC(=O)C(=O)O)cc2Cl)ccc1O`, which ED50 is on record?
A: The ED50 was 0.05 mg/kg.

Q: `Cc1cc(NC(=O)C(=O)O)cc(C)c1Oc1ccc(O)c(C(C)C)c1` was tested. Which ED50 did it give?
A: Its ED50 is 0.02 mg/kg.

Q: Which ED50 does the source give for `CCOC(=O)C(=O)Nc1cc(C)c(Oc2ccc(O)c(C(O)c3ccc(F)cc3)c2)c(C)c1` (stereo in doubt; 23a) [AXITIROME] here?
A: The ED50 was 0.005 mg/kg.

Q: For `N[C@@H](Cc1cc(I)c(Oc2ccc(O)c(I)c2)c(I)c1)C(=O)O` [LIOTHYRONINE], which ED50 is on record?
A: Its ED50 is 0.1 mg/kg.

What follows are compounds tested on Rattus norvegicus (assay: Minimum effective dose was determined in hypercholesterolemic rats for lowering total cholesterol level compared to control upon peroral administration). Conditions: po, read-out: MED.
Format: functional

Q: `CC(C)c1cc(Oc2c(Cl)cc(NC(=O)C(=O)O)cc2Cl)ccc1O` was tested. Which minimal effective dose did it give?
A: Its minimal effective dose is 0.0125 mg/kg.

Q: Which minimal effective dose does the source give for `Cc1cc(NC(=O)C(=O)O)cc(C)c1Oc1ccc(O)c(C(C)C)c1` here?
A: Its minimal effective dose is 0.01 mg/kg.

Q: How did the minimal effective dose turn out when `CCOC(=O)C(=O)Nc1cc(C)c(Oc2ccc(O)c(C(O)c3ccc(F)cc3)c2)c(C)c1` (stereo in doubt; 23a) [AXITIROME] was run?
A: The minimal effective dose was less than 0.001 mg/kg.

Q: With `N[C@@H](Cc1cc(I)c(Oc2ccc(O)c(I)c2)c(I)c1)C(=O)O` [LIOTHYRONINE] as the compound, how does the minimal effective dose read?
A: Its minimal effective dose is 0.025 mg/kg.
